Molecules are shown by their SMILES. pIC50: −log10 of the molar value. A value given as a limit tells only on which side of the number the result lay.

The first assay has as its system STING pathway. The assay can be described thus: IFN β reporter assay (HTRF, 2′3′-cGAMP-stimulated THP1 cells). Conditions: Homo sapiens, THP-1, THP1 cells, 5 μM 2′3′-cGAMP, IFN β secretion inhibition; class symbols; read-out: IFN β reporter activity IC50. The class given is cell-based, human. On the procedure:
STING pathway deactivation by the compounds described herein was measured using THP1 cells. The THP1 Cells (obtained from ATCC, Cat #TIB-202) were maintained in RPMI-1640 (Gibco, Cat #22400105), 10% FBS, 1% Pen-Strep, 0.05 mM 2-mercaptoethanol. For STING activation, 2′3′-cGAMP (MW 718.38, obtained from Invivogen) was used and prepared in serum-free RPMI-1640 media. Growth media: RPMI-1640 (HEPES, glutamine), 10% FBS, 1% Pen-Strep, 0.05 mM 2-mercaptoethanol. Assay media: RPMI-1640 (HEPES, glutamine), 0.5% FBS. 2′3′-cGAMP: Dissolve 2′3′-cGAMP to 10 mM stock in H2O.
The cells were prepared and seeded at 100K, 90 μL/well with assay media in cell culture plate (Greiner 655180). The compounds were added in 96-well tissue culture plates by Tecan D300e for a final concentration of 0.00137-3 μM.
Lipo2000/3000 and 2′3′-cGAMP stock solutions were diluted respectively in serum-free RPMI-1640 media. The diluted 2′3′-cGAMP and Lipo (V/V=1:1) were mixed and stood for 15 min at room temperature. 10 μL 2,3-cGAMP/Lipofectamine (10×) was transferred to the 96-well assay plate with a final 2′3′-cGAMP concentration of 5 μM. The cell plates were centrifuged at 1000 rpm for 5 min after incubating at 37° C., 5% CO2 overnight.
All reagents (human IFN beta kit, Cisbio 62HIFNBPEG) were warmed to room temperature for at least 30 min before the assay. The instructions of the kit were followed to prepare the detection media. 14 μL of cell supernatants was transferred into their dedicated wells in 384-well plate. Then 2 μL of the activation reagent solution and 4 μL of the mixed antibody solution were added to all wells. The plate was sealed and incubated for 3 h at room temperature.
The HTRF signal was read in Envision (PerkinElmer). IFN β reporter activity was then measured. The calculated ratio is the signal at 665 nm/signal at 615 nm. IC50 values are calculated by using standard methods known in the art.
In general terms: In a reporter assay the amount or activity of a reporter protein is the signal.
With `CC(NCC(F)(F)F)c1cc2c(cc1F)c(C(=O)Nc1c[nH]c3ccc(F)cc13)cn2C` (racemic) [Example 107, rac-5-fluoro-N-(5-fluoro-1H-indol-3-yl)-1-methyl-6-[1-(2,2,2-trifluoroethylamino)ethyl]indole-3-carboxamide], the pIC50 – broadly, −log10 of the IC50, conventionally taken in molar units – was 6.70 to 7.30.

Take `Cn1cc(C(=O)Nc2c[nH]c3cc(F)c(F)cc23)c2cc(F)c(CNCC(F)(F)F)cc21` [Example 106]: the pIC50 is > 7.30.

As to `CN1CCC(c2cc3c(cc2F)c(C(=O)Nc2c[nH]c4ccc(F)cc24)cn3C)CC1` [Example 116, 5-fluoro-N-(5-fluoro-1H-indol-3-yl)-1-methyl-6-(1-methyl-4-piperidyl)indole-3-carboxamide], the negative logarithm of the IC50 (pIC50) is < 6.00.

Turning to `O=C(Nc1c[nH]c2ccc(F)cc12)c1n[nH]c2cc(C3CCOCC3)ccc12` [Example 28], the pIC50 is 6.70 to 7.30.

Take `O=C(Nc1c[nH]c2ccc(F)cc12)c1n[nH]c2ncc(Br)cc12` [Example 7]: the negative-log IC50 (pIC50) is 6.70 to 7.30.

Take `Cn1cc(C(=O)Nc2c[nH]c3ccc(F)cc23)c2cc(F)c(CN3CCC(F)CC3)cc21` [Example 102]: the pIC50 is 6.00 to 6.70.

With `CN(C)Cc1ccc2[nH]cc(NC(=O)c3cn(C)c4cc(C(F)(F)F)ccc34)c2c1` [Example 111, N-(5-((dimethylamino)methyl)-1H-indol-3-yl)-1-methyl-6-(trifluoromethyl)-1H-indole-3-carboxamide], the pIC50 is < 6.00.

Regarding `O=C(Nc1c[nH]c2ccc(F)cc12)c1n[nH]c2nc(OCC(F)(F)F)ccc12` [Example 69], the pIC50 was 6.70 to 7.30.

Consider `Cn1cc(C(=O)Nc2c[nH]c3ccc(F)cc23)c2cc(F)c(CNCC(F)F)cc21` [Example 103], for which the pIC50 is 6.70 to 7.30.

Consider `O=C(Nc1c[nH]c2ccc(F)cc12)c1cnn2cc(C(F)(F)F)ccc12` [Example 66], for which the pIC50 is 6.00 to 6.70.

`O=C(Nc1c[nH]c2cc(F)c(F)cc12)c1n[nH]c2ncc(Br)cc12` [Example 68]: the pIC50 is 6.70 to 7.30.

Consider `Cn1cc(C(=O)Nc2c[nH]c3ccc(F)cc23)c2cc(F)c(CNCC(F)(F)F)cc21` [Example 91, 5-fluoro-N-(5-fluoro-1H-indol-3-yl)-1-methyl-6-[(2,2,2-trifluoroethylamino)methyl]indole-3-carboxamide], for which the pIC50 is 6.70 to 7.30.

Staying with this assay, now noted: Homo sapiens, THP-1, read-out: IFN β reporter activity IC50.
For `Cn1cc(C(=O)Nc2c[nH]c3ccc(F)cc23)c2ccc(Cl)cc21` [Example 32], the pIC50 was > 7.30.

As to `Cn1cc(C(=O)Nc2c[nH]c3ccc(F)cc23)c2ccc(C(F)(F)F)cc21` [Example 20], the negative-log IC50 (pIC50) was > 7.30.

Turning to `O=C(Nc1c[nH]c2ccc(F)cc12)c1cn(C2CNC2)c2cc(C(F)(F)F)ccc12` [Example 113, 1-(azetidin-3-yl)-N-(5-fluoro-1H-indol-3-yl)-6-(trifluoromethyl)indole-3-carboxamide], the pIC50 is < 6.00.

In the next assay the test system is Trex1−/− mice.
Test: not given
Conditions: given to Trex1−/− mice; cited from earlier work.
As for `CCN(CCO)CCCC(C)Nc1ccnc2cc(Cl)ccc12` (stereo not shown) [hydrochloroquine], the “development of experimental autoimmune myocarditis” value was “prevents”.

(Values after US20240002368A1 (QILU REGOR THERAPEUTICS INC., priority 2020, published 2024).)
